{"source": "patent US9944607B2", "about": "“Thiohydantoin derivatives and uses thereof” (Whitehead Institute for Biomedical Research, priority 2012, dated 2018)", "key": {"[1]": {"test_system": "Saccharomyces cerevisiae W303", "assay": "Secondary S. cerevisiae inhibition in glucose media (OD600)", "type": "cell-based", "conditions": "Saccharomyces cerevisiae", "text": "(§1) Cell Lines. • Candida albicans CaCi-2; a drug-resistant clinical isolate was provided by the Whitehead Institute (Redding et al., Clin. Infect. Dis. 1994, 18(2):240-2). This strain was used for the primary assay. • Candida albicans CaCi-17; a strongly drug-resistant clinical isolate was provided by the Whitehead Institute (Redding et al., Clin. Infect. Dis. 1994, 18(2):240-2). This strain was used for the primary assay • Saccharyomyces cerevisiae W303-1a (ATCC 208352); a well-characterized Saccharomyces strain used for determination of glycolytic vs. respiratory metabolism, as well as in the mitochondrial disruption assay. • Candida glabrata (ATCC 2001); used for determination of glycolytic vs. respiratory metabolism. • NIH-3T3 mammalian fibroblasts (ATCC; CRL no.1658); used for mammalian toxicity assays. […]\n(§2) Saccharomyces, while not a major human pathogen, is a useful lab model with well-developed genetic tools available. Candida glabrata is an increasingly prominent clinical problem for immune-compromised patients but with fewer genetic tools available with which to study it. These organisms can utilize alternative metabolic pathways to support growth and survival depending on the carbon source. By comparing the concentration-dependent inhibition of yeast growth in glycerol relative to glucose media, a quantitative assessment of a compound's ability to disrupt respiration can be determined. […].\n(§3) Procedures • Use a Thermo Combi nL to dispense 20 μL/well of assay media into all wells. • Add 2 μL of Amphotericin B to control wells. • Pin 100 nL of test compound from compound plates into assay plates using a CyBi-Well pin tool. • Dispense 20 μL/well of culture into the assay media in all wells. • Incubate the plates in a humidified (90% humidity) Liconic incubator at 37° C. without agitation for 48 hours. • Shake plates briefly. • Read OD600 of wells on a standard plate reader as measure of relative fungal growth. Envision (Perkin Elmer) plate reader settings: Ex Photometric 600, Top read. Secondary Glucose Assay Protocol (AID 623971, 623967, 624013, 624025) Materials and Reagents\n(§4) Clear, flat bottom, black 384-well plates (Corning, Catalog No. 3712BC; Lot No. 35808016); Amphotericin B (Sigma, Catalog no. A2411) 15 mM stock solution in DMSO; Pen/Strep (Gibco, Catalog No. 10378-016; Lot no21040170) 100× in PBS.\n(§5) Synthetic defined growth medium. Complete Supplement Mixture; (Sunrise Science, Catalog No. 1001-100); Yeast Nitrogen Base without ammonium sulfate (MP Biomedicals, Catalog No. 4027-012); Glucose (Sigma, Catalog No. G7021). • Prepare medium by dissolving 0.79 g of Complete Supplement Mixture and 1.7 g of Yeast Nitrogen Base in 800 mL of water. • Add 20 g of glucose. Adjust final volume to 1000 mL. Filter sterilize.\n(§6) Fungal Inoculum. Test Strains: C. glabrata (ATCC 2001) and Saccharomyces cerevisiae W303. • Inoculate 100 L of yeast from cryopreserved stock into a 250 mL shaker flask containing 20 mL of growth medium. Shake at 30° C. overnight (about 16 hours). • Read OD 600 of 1 mL of fungal culture in a cuvette using a standard optical density reader (Eppendorf BioPhotometer Plus), with growth medium as a background blank. • Dilute to desired volume of fungal inoculum to produce an OD600 reading of 0.005 (S. cerevisiae) or 0.004 (C. glabrata).\nas §3, with “read. 4.5.” for “read.”, “Mitochondrial Disruption” for “Glucose”, “Assay” for “Assay Protocol”, “No. 624062” for “623971, 623967, 624013, 624025) Materials”, “624068)” for “Reagents”"}, "[2]": {"test_system": "Saccharomyces cerevisiae W303", "assay": "Secondary S. cerevisiae inhibition in glycerol media (OD600)", "type": "cell-based", "conditions": "for IC50: Saccharomyces cerevisiae", "text": "as §1, §2\nClear, flat bottom, black 384-well plates (Corning Catalog no. 3712BC; Lot no. 35808016); Amphotericin B (Sigma Catalog no. A2411) 15 mM stock solution in DMSO; Pen/Strep (Gibco Catalog no. 10378-016; Lot no21040170) 100× in PBS.\nas §5, with “4027-012); Glycerol (Sigma” for “4027-012); Glucose (Sigma,”, “No. G-9012).” for “No. G7021).”, “g” for “g of”, “mL” for “mL of”, “20 mL” for “20 g”, “of glycerol.” for “of glucose.”\nas §6, with “Inoculate 100 μL of yeast” for “Inoculate 100 L of yeast”, “stock into 250 mL” for “stock into a 250 mL”, “20 mL growth medium.” for “20 mL of growth medium.”\nas §3"}, "C. glabrata (ATCC 2001)": {"test_system": "C. glabrata (ATCC 2001)", "assay": "Secondary C. glabrata inhibition in glucose media (OD600)", "type": "cell-based, Candida glabrata", "conditions": "Nakaseomyces glabratus", "text": "as §1, §2, §3, §4, §5, §6\nas §3, with “read. 4.5.” for “read.”, “Mitochondrial Disruption” for “Glucose”, “Assay” for “Assay Protocol”, “No. 624062” for “623971, 623967, 624013, 624025) Materials”, “624068)” for “Reagents”"}, "Candida albicans CaCi-2": {"test_system": "Candida albicans CaCi-2", "assay": "Primary assay: C. albicans CaCi-2 growth inhibition (Alamar Blue)", "type": "cell-based", "conditions": "for IC50: Candida albicans"}}, "note": "Where two headings read alike, the source gives them in different places."}
{"smiles": "CCOC(=O)N1C(=O)C2(CCCCC2)N(c2ccc(F)cc2)C1=S", "note": "[CID 56604860, Ethyl 1-(4-fluorophenyl)-4-oxo-2-thioxo-1,3-diazaspiro[4.5]decane-3-carboxylate]", "values": [{"measurement": "IC50", "setting": "[1]; W303, read-out: Growth inhibition of S. cerevisiae on glucose IC50", "value": "> 3", "unit": "µM"}, {"measurement": "Reduction in potency when glucose is available instead of glycerol, S. cerevisiae", "setting": "[2]", "value": "greater than 250 fold"}, {"measurement": "IC50", "setting": "[2]; W303, read-out: Growth inhibition of S. cerevisiae on glycerol IC50", "value": 0.004, "unit": "µM"}, {"measurement": "Fold Selective (Glucose IC50/Glycerol IC50), S. cerevisiae", "setting": "[2]; Table 13", "value": ">750", "unit": "x"}, {"measurement": "IC50", "setting": "C. glabrata (ATCC 2001); ATCC2001, read-out: Growth inhibition of C. glabrata on glucose IC50", "value": "> 3", "unit": "µM"}, {"measurement": "Fold Selective (Anti-target IC50/Target IC50), fibroblast toxicity vs CaCi-2 growth inhibition", "setting": "Candida albicans CaCi-2; Table 12", "value": ">650", "unit": "x"}]}
{"smiles": "CCOC(=O)N1C(=O)C2(CCCCC2)N(c2ccc(C)cc2)C1=S", "note": "[compound 3889161]", "values": [{"measurement": "IC50", "setting": "[1]; W303, 48 h, read-out: Growth Inhibition Activity, IC50 (μM), S. cerevisiae (n = 3) On glucose", "value": "> 3", "unit": "µM"}, {"measurement": "IC50", "setting": "[2]; W303, 48 h, read-out: Growth Inhibition Activity, IC50 (μM), S. cerevisiae (n = 3) On glycerol", "value": 0.011, "unit": "µM"}, {"measurement": "IC50", "setting": "C. glabrata (ATCC 2001); ATCC2001, 48 h, read-out: Growth Inhibition Activity, IC50 (μM), C. glabrata (n = 3) On glucose", "value": "> 3", "unit": "µM"}, {"measurement": "IC50", "setting": "Candida albicans CaCi-2; CACI2, 48 h, read-out: Growth Inhibition Activity, IC50 (μM), C. albicans (n = 3) CaCi-2", "value": 0.3, "unit": "µM"}]}
{"smiles": "CCOC(=O)N1C(=O)C2(CCCCC2)N(c2cccc(C)c2)C1=S", "note": "[compound 56604823]", "values": [{"measurement": "IC50", "setting": "[1]; W303, Table 8, n = 3, glucose media, 48 hours, tested up to 3 μM, read-out: Growth Inhibition Activity, IC50 (μM), S. cerevisiae (n = 3) On glucose", "value": "> 3", "unit": "µM"}, {"measurement": "IC50", "setting": "[2]; W303, Table 8, n = 3, glycerol media, 48 hours, tested up to 3 μM, read-out: Growth Inhibition Activity, IC50 (μM), S. cerevisiae (n = 3) On glycerol", "value": 0.019, "unit": "µM"}, {"measurement": "IC50", "setting": "C. glabrata (ATCC 2001); ATCC2001, Table 8, n = 3, glucose media, 48 hours, tested up to 3 μM, read-out: Growth Inhibition Activity, IC50 (μM), C. glabrata (n = 3) On glucose", "value": "> 3", "unit": "µM"}, {"measurement": "IC50", "setting": "Candida albicans CaCi-2; CACI2, Table 4, n = 3, 48 hours, tested up to 26 μM, read-out: Growth Inhibition Activity, IC50 (μM), C. albicans (n = 3) CaCi-2", "value": 0.2, "unit": "µM"}]}
{"smiles": "C/C=C/C1[C@H]2C[C@@H](C)CC[C@@H]2C(C)=C[C@H]1C(=O)c1c(O)c(-c2ccc(O)cc2)c[nH]c1=O", "note": "(stereo partly drawn) [ilicicolin H, reference compound]", "values": [{"measurement": "IC50", "setting": "[1]; W303, figure legends and Tables 9, 10, 13, AID 623971, read-out: Growth inhibition of S. cerevisiae on glucose IC50", "value": "> 3", "unit": "µM"}, {"measurement": "IC50", "setting": "[2]; W303, figure legends and Tables 9, 10, 13, AID 623969, read-out: Growth inhibition of S. cerevisiae on glycerol IC50", "value": 0.03, "unit": "µM"}, {"measurement": "IC50", "setting": "C. glabrata (ATCC 2001); ATCC2001, figure legends and Tables 9, 10, 13, AID 623967, read-out: Growth inhibition of C. glabrata on glucose IC50", "value": "> 3", "unit": "µM"}, {"measurement": "IC50", "setting": "Candida albicans CaCi-2; CACI2, Tables 9, 10, 12, AID 623899, read-out: C. albicans CaCi-2 growth inhibition IC50", "value": "> 3", "unit": "µM"}]}
